Key:
[1] = UV absorption and fluorescence spectra in solution; type: physicochemical; details: for absorption maximum (abs.) / emission maximum (em.): in MeOH, approximate, comparison
[2] = Preparative photolysis in methanol, light >320 nm; type: physicochemical; details: MeOH, under N2, ambient temperature
Procedure: Diazoketone 10 was subjected to photolysis in methanol in order to study the product distribution. Light with wavelengths >320 nm was used. The result of this experiment is presented in Scheme 6.
NMR spectra were recorded with Varian MERCURY 300 spectrometer at 300 (^1H) and 75.5 MHz (^13C and APT). All spectra are referenced to tetramethylsilane as an internal standard (δ=0 ppm) using the signals of the residual protons of CHCl3 (7.26 ppm) in CDCl3, CHD2OD (3.31 ppm) in CD3OD, HOD (4.79 ppm) in D2O or [D5] DMSO (2.50 ppm) in [D6] DMSO. Multiplicities of signals are described as follows: s=singlet, br. s=broad singlet, d=doublet, br. d=broad doublet, t=triplet, q=quartet, m=multiplet. Coupling constants (J) are given in Hz. Multiplicities in the ^13C NMR spectra were determined by APT (Attached Proton Test) measurements. […] Analytical TLC was performed on MERCK ready-to-use plates with silica gel 60 (F254). […]
Photolysis of diazoketone 10: A solution of compound 10 (70 mg, 0.15 mmol) in MeOH (150 mL) was placed into a reactor for photolysis, and nitrogen was bubbled for 30 min through the solution at room temperature with stirring. Then the lamp was turned on, and the reaction mixture was irradiated at ambient temperature with stirring under N2 for 40 min, until the starting compound could not be detected on TLC. […]

| Compound | absorption maximum (abs.) [1] | emission maximum (em.) [1] | UV λmax ([1]; MeCN) [nm] | ε at λmax ([1]; MeCN) | irradiation time until starting compound could not be detected [2] [min] |
| --- | --- | --- | --- | --- | --- |
| 5/6-carboxy rhodamine Q | ca. 540 nm | about 560 nm | – | – | – |
| CCN(CC)c1ccc2c(c1)Oc1cc(N(CC)CC)ccc1C21C(=[N+]=[N-])C(=O)c2ccccc21 [Compound 10] | – | – | 241 | 59700 | 40 |
| CN(C)c1ccc2c(-c3ccccc3C(=O)[O-])c3ccc(N(C)C)cc3[o+]c2c1 [TMR, N,N,N′,N′-Tetramethylrhodamine] | about 560 nm | ca. 580 nm | – | – | – |
| CCN(CC)c1ccc2c(-c3ccccc3C(=O)O)c3ccc(=[N+](CC)CC)cc-3oc2c1.[Cl-] [rhodamine B, Rhodamine B] | about 560 nm | ca. 580 nm | – | – | – |
